Each compound was assayed against T1, b-Raf(V600E) (Homo sapiens, UniProt P15056, V600E) (assay: Raf/Mek Amplified Luminescence Proximity Homogeneous Assay (Alpha Screen), b-Raf(V600E)). Settings: mutant b-Raf(V600E), read-out: mut-b-RAF (IC50 in uM).
T1 construct: made in house
Type: biochemical
Method: Assay buffer: 50 mM Tris, pH 7.5, 15 mM MgCl2, 0.01% BSA, 1 mM DTT Stop buffer: 60 mM EDTA, 0.01% Tween20 Bead buffer: 50 mM Tris, pH 7.5, 0.01% Tween20
b-Raf(V600E), active: Recombinant in-house material biotinylated Mek, kinase dead: Recombinant in-house material Alpha Screen detection kit PerkinElmer, #6760617R Anti phospho-MEK½ Cell signaling #9121 384 well assay plates: White Greiner plates, #781207
b-Raf(V600E) approximately 4 pM c-Raf approximately 4 nM biotinylated Mek, Kinase dead approximately 10 nM
Pre-incubation time with compounds 60 min at room temperature Reaction time 1 or 3 hours at room temperature
Raf and biotinylated Mek, kinase dead, were combined at 2× final concentrations in assay buffer (50 mM Tris, pH 7.5, 15 mM MgCl2, 0.01% BSA and 1 mM DTT) and dispensed 10 μl per well in assay plates (Greiner white 384 well assay plates #781207) containing 0.5 μl of 40× of a raf kinase inhibitor test compound diluted in 100% DMSO. The plate was incubated for 60 min at room temperature.
The Raf kinase activity reaction was started by the addition of 10 μl per well of 2×ATP diluted in assay buffer. After 3 hours (bRaf(V600E)) or 1 hour (c-Raf), the reactions were stopped with the addition of 10 μl of stop reagent (60 mM EDTA). Phosphorylated product was measured using a rabbit anti-p-MEK (Cell Signaling, #9121) antibody and the Alpha Screen IgG (Protein A) detection Kit (PerkinElmer #6760617R), by the addition of 30 μL to the well of a mixture of the antibody (1:2000 dilution) and detection beads (1:2000 dilution of both beads) in bead buffer (50 mM Tris, pH 7.5, 0.01% Tween20). The additions were carried out under dark conditions to protect the detection beads from light. A lid was placed on top of the plate and incubated for 1 hour at room temperature, then the luminescence was read on a PerkinElmer Envision instrument. The concentration of each compound for 50% inhibition (IC50) was calculated by non-linear regression using XL Fit data analysis software.
The Raf/Mek Amplified Luminescence Proximity Homogeneous Assay described was used to generate the luminescence and mutant b-Raf(V600E) IC50 data for selected Raf Kinase Inhibitors shown in Table 1 above.

T1 sequence (P15056 whole entry V600E): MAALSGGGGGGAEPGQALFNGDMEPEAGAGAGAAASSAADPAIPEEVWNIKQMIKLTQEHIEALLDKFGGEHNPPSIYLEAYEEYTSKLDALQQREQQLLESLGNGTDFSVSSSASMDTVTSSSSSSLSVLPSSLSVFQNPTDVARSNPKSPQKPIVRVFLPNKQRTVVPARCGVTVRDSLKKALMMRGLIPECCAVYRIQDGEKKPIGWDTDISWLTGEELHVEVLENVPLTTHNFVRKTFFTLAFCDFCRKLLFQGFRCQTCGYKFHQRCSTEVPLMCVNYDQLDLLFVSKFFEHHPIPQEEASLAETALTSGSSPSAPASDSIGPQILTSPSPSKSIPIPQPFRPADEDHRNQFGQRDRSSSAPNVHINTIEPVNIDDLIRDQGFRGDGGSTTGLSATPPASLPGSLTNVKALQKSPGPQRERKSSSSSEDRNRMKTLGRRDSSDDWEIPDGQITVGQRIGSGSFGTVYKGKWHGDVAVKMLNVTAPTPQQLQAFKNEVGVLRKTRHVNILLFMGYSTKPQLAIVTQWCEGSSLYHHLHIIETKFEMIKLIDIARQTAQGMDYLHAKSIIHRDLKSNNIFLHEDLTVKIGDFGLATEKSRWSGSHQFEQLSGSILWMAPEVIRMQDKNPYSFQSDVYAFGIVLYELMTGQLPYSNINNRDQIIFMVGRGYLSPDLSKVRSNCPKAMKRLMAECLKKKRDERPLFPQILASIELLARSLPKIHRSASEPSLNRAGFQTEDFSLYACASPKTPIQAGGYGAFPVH

| SMILES | IC50 [µM] |
| --- | --- |
| COc1cc(-c2[nH]c(-c3ccc(Cl)cc3F)nc2-c2ccncc2)cnc1N [Compound 146, 5-(2-(4-chloro-2-fluorophenyl)-4-(pyridin-4-yl)-1H-imidazol-5-yl)-3-methoxypyridin-2-amine] | 0.0023 |
| c1ccc(-c2nc(-c3ccncc3)c(-c3cnc4[nH]ccc4c3)[nH]2)cc1 [Compound 45, 5-(2-phenyl-4-(pyridin-4-yl)-1H-imidazol-5-yl)-1H-pyrrolo[2,3-b]pyridine] | 0.0046 |
| COc1cc(-c2nc(-c3ccc(F)cc3)[nH]c2-c2ccnc(Nc3cccc(F)c3)n2)cnc1N [Compound 172, 4-(4-(6-amino-5-methoxypyridin-3-yl)-2-(4-fluorophenyl)-1H-imidazol-5-yl)-N-(3-fluorophenyl)pyrimidin-2-amine] | 0.0014 |
| COc1cc(-c2[nH]c(-c3ccccc3)nc2-c2ccnc(N[C@@H]3CCCN(S(=O)(=O)c4ccc(Cl)cc4)C3)n2)cnc1N [Compound 58, (R)-4-(5-(6-amino-5-methoxypyridin-3-yl)-2-phenyl-1H-imidazol-4-yl)-N-(1-(4-chlorophenylsulfonyl)piperidin-3-yl)pyrimidin-2-amine] | 0.0002 |
| COc1cc(-c2nc(C(C)(C)C)n(C)c2-c2ccnc(NCC(C)C)n2)cnc1N [Compound 228, 4-(4-(6-amino-5-methoxypyridin-3-yl)-2-tert-butyl-1-methyl-1H-imidazol-5-yl)-N-isobutylpyrimidin-2-amine] | 0.0006 |
| COc1nc(-c2nc(C(C)(C)C)[nH]c2-c2ccnc(NC[C@H](C)NC(=O)OC(C)C)n2)c(C)nc1N [Compound 257, (S)-isopropyl 1-(4-(4-(5-amino-6-methoxy-3-methylpyrazin-2-yl)-2-tert-butyl-1H-imidazol-5-yl)pyrimidin-2-ylamino)propan-2-ylcarbamate] | 0.0012 |
| c1ccc(-c2nc(-c3ccncc3)c(-c3ccc4cc[nH]c4c3)[nH]2)cc1 [Compound 33, 6-(2-phenyl-4-(pyridin-4-yl)-1H-imidazol-5-yl)-1H-indole] | 0.054 |
| COCC(=O)N[C@@H](C)CNc1nccc(-c2oc(-c3ccc(F)cc3)nc2-c2cnc(N)c(OC)n2)n1 [Compound 217, (S)-N-(1-(4-(4-(5-amino-6-methoxypyrazin-2-yl)-2-(4-fluorophenyl)oxazol-5-yl)pyrimidin-2-ylamino)propan-2-yl)-2-methoxyacetamide] | 0.002 |
| CCNc1nccc(-c2[nH]c(C(C)(C)C)nc2-c2cnc(N)c(OC)c2)n1 [Compound 211, 4-(4-(6-amino-5-methoxypyridin-3-yl)-2-tert-butyl-1H-imidazol-5-yl)-N-ethylpyrimidin-2-amine] | 0.0001 |
| c1ccc(-c2nc(-c3ccncc3)c(-c3cnc4[nH]cnc4c3)[nH]2)cc1 [Compound 53, 6-(2-phenyl-4-(pyridin-4-yl)-1H-imidazol-5-yl)-3H-imidazo[4,5-b]pyridine] | 0.29 |
| c1ccc(-c2nc(-c3ccncc3)c(-c3cnc4c(n3)CCN4)[nH]2)cc1 [Compound 59, 2-(2-phenyl-4-(pyridin-4-yl)-1H-imidazol-5-yl)-6,7-dihydro-5H-pyrrolo[3,2-b]pyrazine] | 0.68 |
| CCOC(=O)N[C@@H](C)CNc1nccc(-c2[nH]c(C(C)(C)C)nc2-c2cnc(N)c(OC)n2)n1 [Compound 236, (S)-ethyl 1-(4-(4-(5-amino-6-methoxypyrazin-2-yl)-2-tert-butyl-1H-imidazol-5-yl)pyrimidin-2-ylamino)propan-2-ylcarbamate] | 0.0001 |
| COc1cc(-c2nc(C3(O)CCN(C)CC3)[nH]c2-c2ccncc2)cnc1N [Compound 156, 4-(4-(6-amino-5-methoxypyridin-3-yl)-5-(pyridin-4-yl)-1H-imidazol-2-yl)-1-methylpiperidin-4-ol] | 0.0093 |
| COC(=O)N[C@@H](C)CNc1nccc(-c2nc(C(C)(C)C)[nH]c2-c2cnc3[nH]cc(C(F)(F)F)c3c2)n1 [Compound 263, (S)-methyl 1-(4-(2-tert-butyl-5-(3-(trifluoromethyl)-1H-pyrrolo[2,3-b]pyridin-5-yl)-1H-imidazol-4-yl)pyrimidin-2-ylamino)propan-2-ylcarbamate] | 0.065 |
| COc1cc(-c2nc(-c3ccccc3)[nH]c2-c2ccnc(N)c2)cnc1N [Compound 55, 5-(5-(2-aminopyridin-4-yl)-2-phenyl-1H-imidazol-4-yl)-3-methoxypyridin-2-amine] | 0.0098 |

The remaining lines, values ahead:

| IC50 [µM] | SMILES |
| --- | --- |
| 0.349 | COc1ncc(-c2[nH]c(-c3ccccc3)nc2-c2ccncc2)cc1N [Compound 42, 2-methoxy-5-(2-phenyl-4-(pyridin-4-yl)-1H-imidazol-5-yl)pyridin-3-amine] |
| 0.025 | CNc1ncc(-c2[nH]c(-c3ccccc3)nc2-c2ccncc2)cc1OC [Compound 43, 3-methoxy-N-methyl-5-(2-phenyl-4-(pyridin-4-yl)-1H-imidazol-5-yl)pyridin-2-amine] |
| 0.465 | Oc1ccc(-c2[nH]c(-c3ccccc3)nc2-c2ccncc2)cn1 [Compound 44, 5-(2-phenyl-4-(pyridin-4-yl)-1H-imidazol-5-yl)pyridin-2-ol] |
| 0.005 | c1ccc(-c2nc(-c3ccncc3)c(-c3ccc4cnoc4c3)[nH]2)cc1 [Compound 34, 6-(2-phenyl-4-(pyridin-4-yl)-1H-imidazol-5-yl)benzo[d]isoxazole] |
| 0.0015 | COc1cc(-c2[nH]c(C3CC3)nc2-c2ccncc2)cnc1N [Compound 76, 5-(2-cyclopropyl-4-(pyridin-4-yl)-1H-imidazol-5-yl)-3-methoxypyridin-2-amine] |
| 0.0016 | COc1cc(-c2nc(-c3ccccc3)[nH]c2-c2ccnc(NC3CC3)n2)cnc1N [Compound 72, 4-(4-(6-amino-5-methoxypyridin-3-yl)-2-phenyl-1H-imidazol-5-yl)-N-cyclopropylpyrimidin-2-amine] |
| 0.405 | COc1cc(-c2[nH]c(-c3ccc(F)cc3)nc2C2CCOCC2)cnc1N [Example 10, 5-(2-(4-fluorophenyl)-5-(tetrahydro-2H-pyran-4-yl)-1H-imidazol-4-yl)-3-methoxypyridin-2-amine] |
| 0.0035 | COc1cc(-c2[nH]c(-c3ccc(C(N)=O)cc3)nc2-c2ccncc2)cnc1N [Compound 126, 4-(5-(6-amino-5-methoxypyridin-3-yl)-4-(pyridin-4-yl)-1H-imidazol-2-yl)benzamide] |
| 0.0049 | COc1cc(-c2nc(-c3ccccc3)[nH]c2-c2ccncn2)cnc1N [Compound 61, 3-methoxy-5-(2-phenyl-5-(pyrimidin-4-yl)-1H-imidazol-4-yl)pyridin-2-amine] |
| 0.0321 | COc1cc(-c2[nH]c(-c3ccc(F)cc3)nc2-c2cn[nH]c2)cnc1N [Compound 96, 5-(2-(4-fluorophenyl)-4-(1H-pyrazol-4-yl)-1H-imidazol-5-yl)-3-methoxypyridin-2-amine] |
| 0.0001 | COc1cc(-c2nc(-c3ccc(F)cc3)[nH]c2-c2ccnc(NC[C@H](C)NC(=O)[C@H](C)OC)n2)cnc1N [Compound 197, (S)-N-((S)-1-(4-(4-(6-amino-5-methoxypyridin-3-yl)-2-(4-fluorophenyl)-1H-imidazol-5-yl)pyrimidin-2-ylamino)propan-2-yl)-2-methoxypropanamide] |
| 0.0001 | COCC(=O)N[C@@H](C)CNc1nccc(-c2[nH]c(C3CC3)nc2-c2cnc(N)c(OC)n2)n1 [Compound 250, (S)-N-(1-(4-(4-(5-amino-6-methoxypyrazin-2-yl)-2-cyclopropyl-1H-imidazol-5-yl)pyrimidin-2-ylamino)propan-2-yl)-2-methoxyacetamide] |
